Results as given in patent US5376679A, “Bicyclic or tricyclic biocidal compounds” (Shell Internationale Research Maatschappij B.V., priority 1988, dated 1994).
In brackets after ≈: the same amount, converted by molar mass.

Key:
Staphylococcus aureus = assay: Minimum inhibitory concentration, Staphylococcus aureus (Sa); assay type: cell-based, Staphylococcus aureus (NCIB 6571); details: 30° C., 24 and 72 hours
Experimental: (§1) In respect of S. aureus, B. subtilis and E. coli, the microorganisms were cultured in 50 ml aliquots of a tryptone soya broth in 250 ml conical flasks at 30° C. on a rotary shaker at 200 rpm for 24 hours. Tryptone soya broth was prepared by adding 17 g pancreatic digest of casein, 3 g […] digest of soyabean meal, 5 g of sodium chloride, 2.5 g of dipotassium hydrogen phosphate and 2.5 g of dextrose to 1 liter of distilled water, mixing and sterilising by autoclaving at 121° C. for 15 minutes. 1 ml aliquots of the resulting cultures were mixed with 99 ml of fresh tryptone soya broth and used as inocula for tests. […] Test procedures were as follows: (ii) Dilution Series for Other Test Bacteria, Yeast and Filamentous Fungi Dilution series from the stock solution of each compound were prepared in sterile distilled water. These contained 50, 100, 500 and 1000 ppm compound. To duplicate wells of a compartmentalised square petri dish 0.3 ml of each test compound concentration was added together with 2.7 ml of one of the microbial inocula described above. […] After incubation, in the dark, at 30° C. the wells were examined for the presence or absence of growth. Bacterial and yeast cultures were examined after 24 hours and 72 hours incubation and the fungi cultures after 3, 7 and 10 days. By means of the above tests minimum inhibitory concentrations were determined for the various test compounds.

Bacillus subtilis = assay: Minimum inhibitory concentration, Bacillus subtilis (Bs); assay type: cell-based; details: 30° C., 24 and 72 hours
Experimental: as §1

Escherichia coli = assay: Minimum inhibitory concentration, Escherichia coli (Ec); assay type: cell-based, Escherichia coli (NCIB 9517); details: 30° C., 24 and 72 hours
Experimental: as §1

Desulfovibrio sp. = assay: Minimum inhibitory concentration, sulphate-reducing bacteria (Dsp); assay type: cell-based; details: 30° C., 2, 5 and 10 days
Experimental: The sulphate reducing bacteria Desulfovibrio sp. were cultured in a modified Postgate's Medium B for 48 hours at 30° C. and used directly as an inoculum. The modified Postgate's Medium B consisted of 0.5 g dipotassium hydrogen phosphate, 1 g ammonium chloride, 1 g sodium sulphate, 5 g sodium lactate, 1 g yeast extract, 0.1 ml thioglycolic acid, 0.1 ml ascorbic acid, 0.5 g ferrous sulphate heptahydrate, 750 ml aged seawater and 250 ml distilled water, pH adjusted to 7.8, divided into aliquots and sterilised by autoclaving at 121° C. for 15 minutes. […] Test procedures were as follows: (i) Suphate-reducing Bacteria Test Dilution Series Duplicate aliquots (9.9 ml) of dilution series from the stock solutions of each compound were prepared in a modified Postgate's Medium B described above. These contained 100 ppm compound. These were then inoculated with 0.1 ml of inoculum. After incubation at 30° C., the presence or absence of growth--as indicated by a blackening of the medium due to ferrous sulphide production--was recorded at 2, 5 and 10 days. […] By means of the above tests minimum inhibitory concentrations were determined for the various test compounds.

Saccharomyces cerevisiae = assay: Minimum inhibitory concentration, yeast (Sc); assay type: cell-based, Saccharomyces cerevisiae (ATCC 9763); details: 30° C., 24 and 72 hours
Experimental: Inocula of S. cerevisiae were prepared as for S. aureus, B. subtilis and E. coli, but using yeast malt broth in place of the typtone soya broth. The yeast malt broth was prepared by suspending 3 g yeast extract, 3 g malt extract, 5 g peptone and 10 g dextrose in 1 liter of distilled water, warming to achieve solution and sterilising by autoclaving at 121° C. for 15 minutes.
(§2) Test procedures were as follows:
(§3) (ii) Dilution Series for Other Test Bacteria, Yeast and Filamentous Fungi
(§4) Dilution series from the stock solution of each compound were prepared in sterile distilled water. These contained 50, 100, 500 and 1000 ppm compound. To duplicate wells of a compartmentalised square petri dish 0.3 ml of each test compound concentration was added together with 2.7 ml of one of the microbial inocula described above. This gave final concentrations of the test compound of 5, 10, 50 and 100 ppm.
(§5) After incubation, in the dark, at 30° C. the wells were examined for the presence or absence of growth. Bacterial and yeast cultures were examined after 24 hours and 72 hours incubation and the fungi cultures after 3, 7 and 10 days.
(§6) By means of the above tests minimum inhibitory concentrations were determined for the various test compounds.

Aspergillus niger = assay: Minimum inhibitory concentration, Aspergillus niger (An); assay type: cell-based, Aspergillus niger (CMI 17454); details: 30° C., 3, 7 and 10 days
Experimental: (§7) Inocula of the fungi Aspergillus niger, Cladosporium resinae and Chaetomium globosum were prepared containing 5×10^5 conidia/ml in a potato dextrose broth. The potato dextrose broth was prepared by suspending 4 g potato extract and 20 g dextrose in 1 liter of distilled water, warming to achieve solution, separating into aliquots and sterilising by autoclaving at 121° C. for 15 minutes.
as §2, §3, §4, §5, §6

Cladosporium resinae = assay: Minimum inhibitory concentration, Cladosporium resinae (Cr); assay type: cell-based; details: Amorphotheca resinae, 30° C., 3, 7 and 10 days
Experimental: as §7, §2, §3, §4, §5, §6

Chaetomium globosum = assay: Minimum inhibitory concentration, Chaetomium globosum (Chg); assay type: cell-based
Experimental: as §7, §2, §3, §4, §5, §6

[1] = system: Pseudocercosporella herpotrichoides; assay: In vitro activity against wheat eyespot (Ph); assay type: cell-based; design: Ph: activity against wheat eyespot: scale not given here; details: in vitro, 100 ppm in agar, 11 days; activity grade 1 or 2, not defined
Experimental: (c) Activity Against Wheat Eyespot (Pseudocercosporella herpotrichoides; Ph)
The test is an in vitro one. Samples are prepared wherein 0.7 mls solution containing 2 mg active material dissolved in acetone is evenly dispersed in 20 ml molten half-strength potato dextrose agar (formed by dissolving 2 g potato extract, 10 g dextrose and 7.5 g agar in 1 liter of water and sterilising for 15 minutes and 121° C.) and the resulting 20 ml portions are allowed to set in 9 cm petri dishes. The concentration of active material in the resulting samples is 100 ppm. Upon setting, two plugs of 5 mm diameter taken from the advancing edge of a stock plate of a 3 to 4 week old culture of P.herpotrichoides on full strength potato dextrose agar, incubated at 20°-22° C. in darkness, are placed, equally spaced on the surface of each sample, mycelial side uppermost. The samples are incubated for 11 days at 20°-22° C. in darkness before assessment. Diametric growth is measured with the width of the plug subtracted and results compared with growth on a sample wherein 0.7 ml acetone containing no active material is dispersed in 20 ml half-strength potato agar.

Fusarium culmorum = assay: Activity against seedling wheat blight, soil drench (Fs); assay type: in vivo; design: scale not given here; details: 10 kg/ha, 21 days, activity grade 1 or 2, not defined
Experimental: (d) Activity Against Seedling Wheat Blight (Fusarium culmorum; Fs)
The test is an anti-sporulant one using a soil drench. Surface sterilised wheat seeds (var Waggoner) are inoculated by soaking in an aqueous suspension containing 7×10^5 spores/ml (60 mg seed per 80 ml suspension) at 22° C. for 6 hours. The seeds are then sown in pots (5 per pot) in sand at a depth of 1 cm. 1 day after inoculation and planting the active material is applied at a rate of 10 kg/ha by pouring on a soil drench (concentration 0.36 g/l active material in 12% v/v acetone/water) evenly over the sand. The pots are then transferred to a glasshouse, kept at 25° C. and watered sparingly. 21 days after inoculation the resulting seedlings are removed from the pots and their roots are gently washed. Visual assessment is made based on lesion development on stem base and upper roots in comparison with control seedlings.

Leptosphaeria nodorum = assay: Direct antisporulant activity against wheat leafspot (Ln); assay type: in vivo; design: scale not given here; details: foliar spray, 1 kg/ha; activity grade 1 or 2, not defined
Experimental: (e) Activity Against Wheat Leafspot (Leptosphaeria nodorum; Ln) The test is a direct antisporulant one, using a foliar spray. Leaves of wheat plants ([…]), at the single leaf stage, are inoculated by spraying with an aqueous suspension containing 8×10^5 spores/mi. The inoculated plants are kept for 24 hours in a high humidity compartment prior to treatment. […] After drying, the plants are kept for 5 days under normal glasshouse conditions, followed by assessment. Assessment is based on the percentage of leaf area covered by sporulation compared with that on leaves of control plants.

[2] = system: Erysiphe graminis f.sp. hordei; assay: Direct antisporulant activity against barley powdery mildew (Eg); assay type: in vivo; design: scale not given here; details: foliar spray, 1 kg/ha; activity grade 1 or 2, not defined
Excerpt: (f) Activity Against Barley Powdery Mildew (Erysiphe graminis f.sp. hordei; Eg) The test is a direct antisporulant one, using a foliar spray. Leaves of barley seedlings, cultivar Golden Promise, are inoculated by dusting with mildew conidia one day prior to treatment with the test compound. The inoculated plants are kept overnight at glasshouse ambient temperature and humidity prior to treatment. […] After drying, plants are returned to a compartment at ambient temperature and humidity for up to 7 days, followed by assessment. Assessment is based on the percentage of leaf area covered by sporulation compared with that on leaves of control plants.

Plasmopara viticola = assay: Direct protectant activity against vine downy mildew (Pvp); assay type: in vivo; design: Pvp: direct protectant activity against vine downy mildew: scale not given here
Excerpt: (a) Direct Protectant Activity Against Vine Downy Mildew (Plasmopara viticola; Pvp)
The test is a direct protectant one, using a foliar spray. The lower surfaces of leaves of whole vine plants (cv Cabernet Sauvignon) are sprayed with a solution of active material in 1:1 v/v water/acetone containing 0.04% w "Triton X-155" (trade mark) (octylphenol polyoxyethylene surfactant), at a dosage of 1 kilogram of active material per hectare using a track sprayer which delivers 620 liters/ha, and after a subsequent 24 hours under normal glasshouse conditions the lower surfaces of the leaves are inoculated by spraying with an aqueous solution containing 10^4 zoosporangia/ml. The inoculated plants are kept for 24 hours in a high humidity compartment, 5 days under normal glasshouse conditions and then returned for a further 24 hours to high humidity. Assessment is based on the percentage of leaf area covered by sporulation compared with that on control leaves.

MIC (Chaetomium globosum; 30° C., 3, 7 and 10 days) [µg/mL]	SMILES	MIC (Staphylococcus aureus) [µg/mL]	MIC (Bacillus subtilis) [µg/mL]	MIC (Escherichia coli) [µg/mL]	MIC (Desulfovibrio sp.) [µg/mL]	MIC (Saccharomyces cerevisiae) [µg/mL]	MIC (Aspergillus niger) [µg/mL]	MIC (Cladosporium resinae) [µg/mL]	Ph: activity against wheat eyespot [1]	Fs: activity against seedling wheat blight (Fusarium culmorum)	Ln: activity against wheat leafspot (Leptosphaeria nodorum)	Eg: activity against barley powdery mildew [2]	MIC (Chaetomium globosum; *only tested at 100 ppm) [µg/mL]	Pvp: direct protectant activity against vine downy mildew (Plasmopara viticola; foliar spray, 1 kg/ha, activity grade 1 or 2, not defined)	activity against Pvp (Plasmopara viticola; secondary screening)
25 (≈ 105 µM)	N#CN=[N+]([O-])c1cccc2c1OC(CCl)C2 (stereo not drawn) [Example 13]	100 (≈ 421 µM)	100 (≈ 421 µM)	100 (≈ 421 µM)	> 100	100 (≈ 421 µM)	10 (≈ 42.1 µM)	100 (≈ 421 µM)							
	CCC1Cc2cccc([N+]([O-])=NC#N)c2O1 (stereo not drawn) [Example 8]	> 100	> 100	> 100	> 100	100 (≈ 460 µM)	10 (≈ 46 µM)	10 (≈ 46 µM)	2	2	1	1	< 100		
	CC1(C)C=Cc2cccc([N+]([O-])=NC#N)c2O1 [Example 27]	> 100	> 100	> 100	100 (≈ 436 µM)	> 100	100 (≈ 436 µM)	25 (≈ 109 µM)	2	2			< 100		
	C#CCOC(=O)N=Nc1ccc(C)c2c1OC(C)CC2 (stereo not drawn) [Example 39]										1	1			
	Cc1ccc(N=NC#N)c2c1CC(C)(C)O2 [Example 38]													2	high activity
100 (≈ 456 µM)	N#CN=[N+]([O-])c1cccc2c1OC(CO)C2 (stereo not drawn) [Example 12]	> 100	50 (≈ 228 µM)	100 (≈ 456 µM)	50 (≈ 228 µM)	> 100	> 100	100 (≈ 456 µM)							
